According to ChEMBL document CHEMBL4417631, “Oral peptide inhibitors of interleukin-23 receptor and their use to treat inflammatory bowel diseases” (2017):
*1 amine or outer side, *2 acyl side, *3 side chain or, on linkers, in order; H or OH if unused. Where a SMILES comes first, the peptide text is derived from it. Bridges are numbered along the chain shown (N, C = ends). [ ]: non-standard residue; d: D form. Abu(4-yl) = O=C([C@H](CC[*:3])N[*:1])[*:2]; 2Nal = N[C@@H](Cc1ccc2ccccc2c1)C(=O)O; AEF = NCCOc1ccc(C[C@H](N)C(=O)O)cc1; αMeK = C[C@](N)(CCCCN)C(=O)O

Columns and labels:
Interleukin-23 receptor [1] = biological target: T1, Interleukin-23 receptor (Homo sapiens, UniProt Q5VWK5); experiment: Inhibition of interleukin-23 receptor in human DB cells assessed as reduction in IL-23-stimulated STAT3 phosphorylation incubated for 30 mins by HTRF assay; format: cell-based
T1 sequence (Q5VWK5 whole entry): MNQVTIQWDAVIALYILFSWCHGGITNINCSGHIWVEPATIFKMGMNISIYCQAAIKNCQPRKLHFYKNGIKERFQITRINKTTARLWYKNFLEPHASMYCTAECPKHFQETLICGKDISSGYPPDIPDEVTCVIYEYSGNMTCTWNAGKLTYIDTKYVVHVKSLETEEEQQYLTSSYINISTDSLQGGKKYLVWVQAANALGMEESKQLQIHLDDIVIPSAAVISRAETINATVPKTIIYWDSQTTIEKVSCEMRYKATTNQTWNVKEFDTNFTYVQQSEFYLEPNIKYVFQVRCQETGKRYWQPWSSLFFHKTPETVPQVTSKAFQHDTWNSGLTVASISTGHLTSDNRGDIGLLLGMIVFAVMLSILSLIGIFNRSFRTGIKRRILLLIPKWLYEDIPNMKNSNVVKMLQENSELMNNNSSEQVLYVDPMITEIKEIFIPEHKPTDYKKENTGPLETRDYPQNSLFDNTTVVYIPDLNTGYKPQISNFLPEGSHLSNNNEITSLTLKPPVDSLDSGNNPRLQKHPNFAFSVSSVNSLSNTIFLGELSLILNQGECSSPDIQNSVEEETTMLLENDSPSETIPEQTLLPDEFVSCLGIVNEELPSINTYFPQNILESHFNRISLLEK

[2] = Inhibition of interleukin-23 binding to rat interleukin-23 receptor incubated for 2 hrs by competitive binding ELISA
Interleukin-23 receptor [3] = biological target: T1, Interleukin-23 receptor; experiment: Inhibition of interleukin-23 binding to human interleukin-23 receptor incubated for 2 hrs by competitive binding ELISA

| Structure (SMILES) | IC50 (Interleukin-23 receptor [1]) [nM] | IC50 [2] [nM] | IC50 (Interleukin-23 receptor [3]) [nM] |
| --- | --- | --- | --- |
| CC(=O)N[C@H](C(=O)N[C@@H](C)C(=O)N[C@@H](CC(=O)O)C(=O)N[C@@H](Cc1c[nH]c2ccccc12)C(=O)N[C@H](C(=O)N[C@@H](CS)C(=O)N[C@@H](Cc1ccc(O)cc1)C(=O)N[C@@H](Cc1c[nH]c2ccccc12)C(=O)N[C@@H](Cc1cnc[nH]1)C(=O)N[C@H](C(=O)N[C@@H](Cc1ccccc1)C(=O)NCC(=O)NCCOCC(=O)N[C@H](CCCCN)C(N)=O)[C@@H](C)O)C(C)C)C(C)(C)S | 100 to 1000 | 1000 to 10000 | 100 to 1000 |
| CC(=O)N[C@@H](CS)C(=O)N[C@@H](CCC(N)=O)C(=O)N[C@H](C(=O)N[C@@H](Cc1c[nH]c2ccccc12)C(=O)N[C@@H](CCC(N)=O)C(=O)N[C@@H](CS)C(=O)N[C@@H](Cc1ccc(O)cc1)C(=O)N[C@@H](Cc1c[nH]c2ccccc12)C(=O)N[C@@H](CCC(C)C)C(=O)N[C@@H](CCC(=O)O)C(=O)N[C@@H](CC(N)=O)C(=O)NCC(=O)NCC(N)=O)[C@@H](C)O |  | 140 | 61 to 362 |
| CC(=O)N[C@H](C(=O)N[C@@H](CCCNC(=N)N)C(=O)N[C@H](C(=O)N[C@@H](Cc1c[nH]c2ccccc12)C(=O)N[C@@H](CCC(N)=O)C(=O)N[C@@H](CS)C(=O)N[C@@H](Cc1ccc(O)cc1)C(=O)N[C@@H](Cc1c[nH]c2ccccc12)C(=O)N[C@@H](CCCNC(=N)N)C(=O)N[C@@H](CCCCN)C(=O)N[C@@H](Cc1ccccc1)C(=O)NCC(=O)NCCOCC(=O)N[C@H](CCCCN)C(N)=O)[C@@H](C)O)C(C)(C)S | 100 to 1000 | 100 to 1000 | 100 to 1000 |
| CC(=O)N[C@H](C(=O)N[C@@H](CCCNC(=N)N)C(=O)N[C@H](C(=O)N[C@@H](Cc1c[nH]c2ccccc12)C(=O)N[C@@H](CCC(N)=O)C(=O)N[C@H](C(=O)N[C@@H](Cc1ccc(O)cc1)C(=O)N[C@@H](Cc1c[nH]c2ccccc12)C(=O)N[C@@H](CCCNC(=N)N)C(=O)N[C@@H](CCCCN)C(=O)N[C@@H](Cc1ccccc1)C(=O)NCC(=O)NCCOCC(=O)N[C@H](CCCCN)C(N)=O)C(C)(C)S)[C@@H](C)O)C(C)(C)S | 25 to 100 | 100 to 1000 | 100 to 1000 |
| CC(=O)N[C@@H](CS)C(=O)N[C@@H](C)C(=O)N[C@@H](CC(=O)O)C(=O)N[C@@H](Cc1c[nH]c2ccccc12)C(=O)N[C@H](C(=O)N[C@H](C(=O)N[C@@H](Cc1ccc(O)cc1)C(=O)N[C@@H](Cc1c[nH]c2ccccc12)C(=O)N[C@@H](Cc1cnc[nH]1)C(=O)N[C@H](C(=O)N[C@@H](Cc1ccccc1)C(=O)NCC(=O)NCCOCC(=O)N[C@H](CCCCN)C(N)=O)[C@@H](C)O)C(C)(C)S)C(C)C | 100 to 1000 | 1000 to 10000 | > 30000 |
| COc1ccc(C[C@H](NC(=O)[C@@H](NC(=O)[C@H](CCC(N)=O)NC(=O)[C@H](Cc2c[nH]c3ccccc23)NC(=O)[C@@H](NC(=O)[C@H](CCC(N)=O)NC(=O)[C@@H](NC(=O)Cc2ccc(F)cc2)C(C)(C)S)[C@@H](C)O)C(C)(C)S)C(=O)N[C@@H](Cc2ccc3ccccc3c2)C(=O)N[C@@](C)(CCCCN)C(=O)N[C@@H](CCCCNC(C)=O)C(=O)N[C@@H](CC(N)=O)C(=O)NCC(N)=O)cc1 | < 10 | 100 to 1000 | 25 to 100 |
| CC(=O)N[C@H](C(=O)N[C@@H](CN)C(=O)N[C@H](C(=O)N[C@@H](Cc1c[nH]c2ccccc12)C(=O)N[C@@H](CCC(N)=O)C(=O)N[C@H](C(=O)N[C@@H](Cc1ccc(OCCN)cc1)C(=O)N[C@@H](Cc1ccc2ccccc2c1)C(=O)N[C@@](C)(CCCCN)C(=O)N[C@@H](CCC(=O)O)C(=O)N[C@@H](CC(N)=O)C(=O)NCC(N)=O)C(C)(C)S)[C@@H](C)O)C(C)(C)S | < 10 | 25 to 100 | < 10 |

Now from value to compound:

| IC50 (Interleukin-23 receptor [1]) [nM] | IC50 [2] [nM] | IC50 (Interleukin-23 receptor [3]) [nM] | Structure (SMILES) |
| --- | --- | --- | --- |
| 8 | 80 |  | CC(=O)N[C@@H](CS)C(=O)N[C@@H](CCCNC(=N)N)C(=O)N[C@H](C(=O)N[C@@H](Cc1c[nH]c2ccccc12)C(=O)N[C@@H](CCC(N)=O)C(=O)N[C@@H](CS)C(=O)N[C@@H](Cc1ccc(O)cc1)C(=O)N[C@@H](Cc1c[nH]c2ccccc12)C(=O)N[C@@H](CCCNC(=N)N)C(=O)N[C@@H](CCC(=O)O)C(=O)N[C@@H](Cc1ccc(O)cc1)C(=O)NCC(=O)N[C@@H](C)C(=O)N[C@H](CCCCN)C(N)=O)[C@@H](C)O |
| < 10 | 25 to 100 | < 10 | CC(=O)NCCCC[C@H](NC(=O)[C@](C)(CCCCN)NC(=O)[C@H](Cc1ccc2ccccc2c1)NC(=O)[C@H](Cc1ccc(OCCN)cc1)NC(=O)[C@@H](NC(=O)[C@H](CCC(N)=O)NC(=O)[C@H](Cc1c[nH]c2ccccc12)NC(=O)[C@@H](NC(=O)[C@H](CCC(N)=O)NC(=O)[C@@H](NC(C)=O)C(C)(C)S)[C@@H](C)O)C(C)(C)S)C(=O)N[C@@H](CC(N)=O)C(=O)NCC(N)=O |
| 5 | 27 |  | CC(=O)N[C@@H](CS)C(=O)N[C@@H](CCC(N)=O)C(=O)N[C@H](C(=O)N[C@@H](Cc1c[nH]c2ccccc12)C(=O)N[C@@H](CCC(N)=O)C(=O)N[C@@H](CS)C(=O)N[C@@H](Cc1ccc(O)cc1)C(=O)N[C@@H](Cc1c[nH]c2ccccc12)C(=O)N[C@@](C)(CC(C)C)C(=O)N[C@@H](CCC(=O)O)C(=O)N[C@@H](CC(N)=O)C(=O)NCC(N)=O)[C@@H](C)O |
| 10 to 25 | 25 to 100 | 25 to 100 | COc1ccc(C[C@H](NC(=O)[C@@H](NC(=O)[C@H](CCC(N)=O)NC(=O)[C@H](Cc2c[nH]c3ccccc23)NC(=O)[C@@H](NC(=O)[C@H](CCC(N)=O)NC(=O)[C@@H](NC(=O)CC(C)C)C(C)(C)S)[C@@H](C)O)C(C)(C)S)C(=O)N[C@@H](Cc2ccc3ccccc3c2)C(=O)N[C@@](C)(CCCCN)C(=O)N[C@@H](CCCCNC(C)=O)C(=O)N[C@@H](CC(N)=O)C(=O)NCC(N)=O)cc1 |
| 10 to 25 | 25 to 100 | 25 to 100 | COc1ccc(C[C@H](NC(=O)[C@@H](NC(=O)[C@H](CCC(N)=O)NC(=O)[C@H](Cc2c[nH]c3ccccc23)NC(=O)[C@@H](NC(=O)[C@H](CCC(N)=O)NC(=O)[C@@H](NCN2C(=O)COCC2=O)C(C)(C)S)[C@@H](C)O)C(C)(C)S)C(=O)N[C@@H](Cc2ccc3ccccc3c2)C(=O)N[C@@](C)(CCCCN)C(=O)N[C@@H](CCCCNC(C)=O)C(=O)N[C@@H](CC(N)=O)C(=O)NCC(N)=O)cc1 |
| < 10 | < 10 | < 10 | CC(=O)NCCCC[C@](C)(NC(=O)[C@H](Cc1ccc2ccccc2c1)NC(=O)[C@H](Cc1ccc(OCCNC(C)=O)cc1)NC(=O)[C@@H]1CSCC[C@H](NC(C)=O)C(=O)N[C@@H](CCC(N)=O)C(=O)N[C@@H]([C@@H](C)O)C(=O)N[C@@H](Cc2c[nH]c3ccccc23)C(=O)N[C@@H](CCC(N)=O)C(=O)N1)C(=O)N[C@@H](CCC(=O)O)C(=O)N[C@@H](CC(N)=O)C(=O)N[C@@H](CCC(N)=O)C(N)=O (Ac-[Abu(4-yl)]QTWQC[AEF](Ac)[2Nal][αMeK](Ac)ENQ-NH2; thioether 1-6) |
|  | 76 | 50 | CC(=O)N[C@@H](CS)C(=O)N[C@@H](CCCNC(N)=O)C(=O)N[C@H](C(=O)N[C@@H](Cc1c[nH]c2ccccc12)C(=O)N[C@@H](CCC(N)=O)C(=O)N[C@@H](CS)C(=O)N[C@@H](Cc1ccc(O)cc1)C(=O)N[C@@H](Cc1c[nH]c2ccccc12)C(=O)N[C@@H](CCCNC(=N)N)C(=O)N[C@H](C(=O)N[C@@H](Cc1ccccc1)C(=O)NCC(=O)NCCC(=O)N[C@H](CCCCN)C(N)=O)C(C)C)[C@@H](C)O |
| 2 | 24 |  | CC(=O)N[C@@H](CS)C(=O)N[C@@H](CO)C(=O)N[C@H](C(=O)N[C@@H](Cc1c[nH]c2ccccc12)C(=O)N[C@@H](CCC(N)=O)C(=O)N[C@@H](CS)C(=O)N[C@@H](Cc1ccc(O)cc1)C(=O)N[C@@H](Cc1c[nH]c2ccccc12)C(=O)N[C@@H](CC(C)C)C(=O)N[C@@H](CCCCN)C(=O)N[C@@H](Cc1cnc[nH]1)C(=O)NCC(=O)NCC(=O)N[C@@H](CCC(=O)O)C(N)=O)[C@@H](C)O (Ac-CSTWQCYWLKHGGE-NH2) |
| 3 | 32 |  | CC(=O)NCCCC[C@H](NC(=O)[C@H](CCC(C)C)NC(=O)[C@H](Cc1c[nH]c2ccccc12)NC(=O)[C@H](Cc1ccc(O)cc1)NC(=O)[C@H](CS)NC(=O)[C@H](CCC(N)=O)NC(=O)[C@H](Cc1c[nH]c2ccccc12)NC(=O)[C@@H](NC(=O)[C@H](CCC(N)=O)NC(=O)[C@H](CS)NC(C)=O)[C@@H](C)O)C(=O)N[C@@H](CC(N)=O)C(=O)NCC(N)=O |
|  | 33 |  | CC(=O)N[C@@H](CS)C(=O)N[C@@H](C)C(=O)N[C@@H](CC(=O)O)C(=O)N[C@@H](Cc1c[nH]c2ccccc12)C(=O)N[C@H](C(=O)N[C@@H](CS)C(=O)N[C@@H](Cc1ccc(O)cc1)C(=O)N[C@@H](Cc1c[nH]c2ccccc12)C(=O)N[C@@H](CCCNC(=N)N)C(=O)N[C@@H](CCCCN)C(=O)N[C@@H](Cc1ccccc1)C(=O)NCC(=O)NCCC(=O)N[C@H](CCCCN)C(N)=O)C(C)C |
|  | 69 |  | CC(=O)N[C@@H](CS)C(=O)N[C@@H](CCCN)C(=O)N[C@H](C(=O)N[C@@H](Cc1c[nH]c2ccccc12)C(=O)N[C@@H](CCC(N)=O)C(=O)N[C@@H](CS)C(=O)N[C@@H](Cc1ccc(O)cc1)C(=O)N[C@@H](Cc1c[nH]c2ccccc12)C(=O)N[C@@H](CCCNC(=N)N)C(=O)N[C@H](C(=O)N[C@@H](Cc1ccccc1)C(=O)NCC(=O)NCCOCC(=O)N[C@H](CCCCN)C(N)=O)C(C)C)[C@@H](C)O |
